The results in this text go back to US11098041B2 (Merck Patent GmbH, priority 2014, dated 2021).

Where only a bound is given, the exact number is not on record here.

The test system of assay [1] is anti-IgM-induced expression of CD69 on CD19 positive cells (B cells) in human PBMCs. Nature of the assay: Assay C: PBMC IC50 assay (anti-IgM-induced CD69 expression). To be noted: anti-IgM stimulation. The assay is classed as cell-based. In short, it runs like this:
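Freshly isolated human PBMCs (2.5×10^5/well) pretreated 1 h with compound, then stimulated overnight (~16-18 h) with goat F(ab′)2 anti-human IgM. CD69 on CD19+ B cells measured by flow cytometry; IC50 from percentage CD69+ B cells versus concentration.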

In assay [2] the test system is IL-1β release by human THP-1 cells. The assay is described as follows: Assay D: THP-1 cells IL-1β release ELISA assay. It counts as cell-based. The conditions noted are these: PMA and LPS, BzATP stimulation. Here is the method: Assay D: THP-1 Cells IL-1β release ELISA Assay
The assay measures IL-1β release by human THP-1 cells after treatment with PMA and LPS in response to BzATP stimulation in order to evaluate the potency of P2X7 inhibitors. THP-1 cells (2×10^5 cells/mL) in culture medium (RPMI1640 (Gibco, #22400-089)+10% HI-FBS (Gibco, #10082-147)+1% L-Glutamine (Gibco, #25030)+1% Pen/Strep (Gibco, #15140) complemented with 0.5 μM PMA (Sigma, #P8139) were incubated for 30 min at 37° C. At the end of the incubation time, the cells were titrated and washed gently in PBS. The cells were then re-suspended to a density of 1.5×10^5 cell/mL in culture medium complemented with 10 ng/mL LPS (Sigma, #L5293). The cell suspension was dispensed (40 μL/well) into a Corning 384-well plate. After 4 hr of incubation at 37° C., the cells were treated with 20 μL of test compounds at various concentrations. The plate was incubated for 30 min at 37° C. and then the cells were treated with 20 μL of 3.2 mM BzATP (Sigma. #B6396) (0.8 mM final concentration). The plate was incubated for an additional 30 min at 37° C., and then subjected to centrifugation (4 min, 1000 rpm). Supernatant (60 μL) from each well was transferred to a 384-matrix PP plate. The plate was then stored at 4° C. (overnight) or −20° C. for longer term storage. The next day, the […] were measured using a human […] ELISA Kit (R & D systems, catalog #DY201) and read using a SpectraMax Plus 384 Microplate Reader.
In general terms: ELISA stands for enzyme-linked immunosorbent assay.

A further assay concerns the target full-length human BTK (Homo sapiens (Human), UniProt Q06187). Nature of the assay: Assay A: microfluidic off-chip mobility shift assay against BTK enzyme. The assay is classed as biochemical.
In assay [3] the target is BTK C481S (His-TEV-hsBTK(328-659)(C481S)) (Homo sapiens (Human), UniProt Q06187, C481S). The assay is described as follows: Assay B: microfluidic off-chip mobility shift assay against BTK C481S enzyme. The assay is classed as biochemical. To be noted: BTK C481S mutant. In short, it runs like this: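 Substrate-to-phosphopeptide conversion quantified by microfluidic mobility shift with laser-induced fluorescence; IC50 and efficacy from log[inhibitor] vs. % activity.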
Chain of BTK C481S (His-TEV-hsBTK(328-659)(C481S)) (Q06187 328-659 C481S): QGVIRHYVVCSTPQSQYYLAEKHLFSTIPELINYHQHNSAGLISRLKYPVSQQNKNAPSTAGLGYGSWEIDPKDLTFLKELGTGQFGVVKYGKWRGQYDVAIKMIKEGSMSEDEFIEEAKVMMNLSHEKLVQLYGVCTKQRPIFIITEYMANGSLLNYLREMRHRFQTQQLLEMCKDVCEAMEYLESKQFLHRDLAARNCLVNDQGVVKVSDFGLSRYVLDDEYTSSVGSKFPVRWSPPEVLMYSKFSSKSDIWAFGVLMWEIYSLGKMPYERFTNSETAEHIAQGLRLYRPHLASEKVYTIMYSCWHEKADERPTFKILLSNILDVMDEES

Chain of full-length human BTK (Q06187 whole entry): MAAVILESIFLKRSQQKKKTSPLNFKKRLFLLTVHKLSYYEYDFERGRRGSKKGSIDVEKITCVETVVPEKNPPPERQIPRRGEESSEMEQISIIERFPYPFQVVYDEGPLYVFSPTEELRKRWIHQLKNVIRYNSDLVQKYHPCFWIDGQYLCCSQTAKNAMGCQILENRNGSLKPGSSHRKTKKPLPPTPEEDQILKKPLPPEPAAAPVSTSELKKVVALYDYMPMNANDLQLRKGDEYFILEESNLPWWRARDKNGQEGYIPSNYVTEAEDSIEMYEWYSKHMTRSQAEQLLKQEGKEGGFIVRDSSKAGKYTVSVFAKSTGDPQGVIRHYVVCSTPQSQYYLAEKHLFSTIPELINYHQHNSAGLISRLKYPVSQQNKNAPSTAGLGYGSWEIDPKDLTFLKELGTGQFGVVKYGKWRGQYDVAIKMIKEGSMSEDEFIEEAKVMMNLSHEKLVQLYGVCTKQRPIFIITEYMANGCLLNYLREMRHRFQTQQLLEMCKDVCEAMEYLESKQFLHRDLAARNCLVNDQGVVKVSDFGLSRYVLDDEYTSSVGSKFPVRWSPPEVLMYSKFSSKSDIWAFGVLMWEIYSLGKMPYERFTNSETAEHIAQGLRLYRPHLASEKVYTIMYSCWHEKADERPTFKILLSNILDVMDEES

As a reminder, the IC50 is the concentration at which inhibition is half-maximal. `Cn1cc(-c2nc3c(-c4ccc(CNC(=O)N5CC(OC(C)(C)C)C5)c(F)c4)ccnc3[nH]2)cn1` [Example 55, 3-(tert-Butoxy)-N-([2-fluoro-4-[2-(1-methyl-1H-pyrazol-4-yl)-3H-imidazo[4,5-b]pyridin-7-yl]phenyl]methyl)azetidine-1-carboxamide]: the 50% inhibitory concentration (IC50) in assay [1] lay in the range of 100 to 1000 nM; in assay [2] it was 1000 to 5000 nM.

Take `Cc1ccc(-n2ccn(-c3cccc(-c4ccnc5[nH]c(-c6ccc(C(=O)N7CCOCC7)cc6)nc45)c3C)c2=O)cc1` [Example 95, 1-[2-Methyl-3-(2-[4-[(morpholin-4-yl)carbonyl]phenyl]-3H-imidazo[4,5-b]pyridin-7-yl)phenyl]-3-(4-methylphenyl)-2,3-dihydro-1H-imidazol-2-one]: the values for the half-maximal inhibitory concentration (IC50) (at full-length human BTK; in assay [3]; in assay [2]) were 1000 to 5000 nM, 1000 to 5000 nM and below 100 nM, respectively.

In the case of `CC(C)(O)CCN1Cc2cc(-c3ccnc4[nH]c(-c5ccc(C(=O)N6CCOCC6)cc5)nc34)ccc2C1=O` [Example 114, 2-(3-Hydroxy-3-methyl-butyl)-5-{2-[4-(morpholine-4-carbonyl)-phenyl]-3H-imidazo[4,5-b]pyridin-7-yl}-2,3-dihydro-isoindol-1-one], the IC50 at full-length human BTK was above 5000 nM; in assay [3], above 5000 nM; in assay [2] it was 1000 to 5000 nM.

`O=C(NCc1ccc(-c2ccnc3[nH]c(-c4cnn(CCN5CCOCC5)c4)nc23)cc1F)c1nnc(C2CCOCC2)o1` [Example 122, 5-(Tetrahydro-pyran-4-yl)-[1,3,4]oxadiazole-2-carboxylic acid 2-fluoro-4-{2-[1-(2-morpholin-4-yl-ethyl)-1H-pyrazol-4-yl]-3H-imidazo[4,5-b]pyridin-7-yl}-benzylamide]: the 50% inhibitory concentration (IC50) on full-length human BTK is 100 to 1000 nM; in assay [3], 100 to 1000 nM; in assay [1] it was above 5000 nM.

On to `CN1CC=C(c2nc3c(-c4ccc(CNC(=O)c5nnc(C(C)(C)C)o5)c(F)c4)ccnc3[nH]2)CC1` [Example 139, 5-tert-Butyl-[1,3,4]oxadiazole-2-carboxylic acid 2-fluoro-4-[2-(1-methyl-1,2,3,6-tetrahydro-pyridin-4-yl)-3H-imidazo[4,5-b]pyridin-7-yl]-benzylamide], for which the IC50 was below 100 nM at full-length human BTK, below 100 nM in assay [3] and 1000 to 5000 nM in assay [1].

Turning to `Cn1cc(-c2nc3c(-c4cc(F)cc(N5CCOc6cc(C7CC7)cc(F)c6C5=O)c4CO)ccnc3[nH]2)cn1` [Example 37, 8-Cyclopropyl-6-fluoro-4-[5-fluoro-2-(hydroxymethyl)-3-[2-(1-methyl-1H-pyrazol-4-yl)-3H-imidazo [4,5-b]pyridin-7-yl]phenyl]-2,3,4,5-tetrahydro-1,4-benzoxazepin-5-one], the values for the IC50 (on full-length human BTK; in assay [3]; in assay [1]) were below 100 nM, below 100 nM and 100 to 1000 nM, respectively.

With `CCn1cc(-c2nc3c(-c4ccc(CNC(=O)c5cc6c(s5)CCCC6)c(F)c4)ccnc3[nH]2)cn1` [Example 130, 4,5,6,7-Tetrahydro-benzo[b]thiophene-2-carboxylic acid 4-[2-(1-ethyl-1H-pyrazol-4-yl)-3H-imidazo[4,5-b]pyridin-7-yl]-2-fluoro-benzylamide], the IC50 is below 100 nM on full-length human BTK, below 100 nM in assay [3] and 100 to 1000 nM in assay [1].

For the compound `CC(C)(C)c1nnc(C(=O)NCc2ccc(-c3ccnc4[nH]c(C5=CCNCC5)nc34)cc2F)o1` [Example 140, 5-tert-Butyl-[1,3,4]oxadiazole-2-carboxylic acid 2-fluoro-4-[2-(1,2,3,6-tetrahydro-pyridin-4-yl)-3H-imidazo[4,5-b]pyridin-7-yl]-benzylamide], the values for the IC50 (at full-length human BTK; in assay [3]; in assay [1]) were below 100 nM, below 100 nM and 1000 to 5000 nM, respectively.

In the case of `Cn1cc(-c2nc3c(-c4cccc(NC(=O)c5cc6c(s5)CCCC6)c4CO)ccnc3[nH]2)cn1` [Example 50, N-[2-(hydroxymethyl)-3-[2-(1-methyl-1H-pyrazol-4-yl)-3H-imidazo[4,5-b]pyridin-7-yl]phenyl]-4,5,6,7-tetrahydro-1-benzothiophene-2-carboxamide], the IC50 is below 100 nM at full-length human BTK, below 100 nM in assay [3] and 100 to 1000 nM in assay [1].

`CN(C)c1ccc(-c2nc3c(-c4ccc(CNC(=O)c5ccc(C(C)(C)C)cc5)c(F)c4)ccnc3[nH]2)nc1` [Example 89, 4-tert-Butyl-N-[(4-[2-[5-(dimethylamino)pyridin-2-yl]-3H-imidazo[4,5-b]pyridin-7-yl]-2-fluorophenyl)methyl]benzamide]: the values for the IC50 (at full-length human BTK; in assay [3]; in assay [1]) were below 100 nM, below 100 nM and 1000 to 5000 nM, respectively.

For `Cn1cc(-c2nc3nccc(-c4cccc(N5CCOc6cc(C7CC7)cc(F)c6C5=O)c4CO)c3[nH]2)cn1` [Example 42, 8-Cyclopropyl-6-fluoro-4-[2-(hydroxymethyl)-3-[2-(1-methyl-1H-pyrazol-4-yl)-1H-imidazo[4,5-b]pyridine-7-yl]phenyl]-2,3,4,5-tetrahydro-1,4-benzoxazepin-5-one], the IC50 at full-length human BTK was below 100 nM; in assay [3] it was below 100 nM; in assay [1], 100 to 1000 nM.

For `CC(C)(C)c1nc(C(=O)NCc2ccc(-c3ccnc4[nH]c(-c5cnn(CCO)c5)nc34)cc2F)no1` [Example 70, 5-tert-Butyl-N-[(2-fluoro-4-[2-[1-(2-hydroxyethyl)-1H-pyrazol-4-yl]-3H-imidazo[4,5-b]pyridin-7-yl]phenyl)methyl]-1,2,4-oxadiazole-3-carboxamide], the IC50 was below 100 nM on full-length human BTK, below 100 nM in assay [3] and 100 to 1000 nM in assay [1].

On to `Cn1cc(-c2nc3c(-c4ccc(C(C)(C)NC(=O)c5ccc(C(C)(C)C)cc5)c(F)c4)ccnc3[nH]2)cn1` [Example 106, 4-tert-Butyl-N-(1-{2-fluoro-4-[2-(1-methyl-1H-pyrazol-4-yl)-3H-imidazo[4,5-b]pyridin-7-yl]-phenyl}-1-methyl-ethyl)-benzamide], for which the values for the half-inhibitory concentration (IC50) (at full-length human BTK; in assay [3]; in assay [1]) were below 100 nM, 100 to 1000 nM and 100 to 1000 nM, respectively.

Regarding `CN(C)c1ccc(-c2nc3c(-c4cccc(N5CCOc6cc(C7CC7)cc(F)c6C5=O)c4CO)ccnc3[nH]2)cc1` [Example 39, 8-Cyclopropyl-4-(3-[2-[4-(dimethylamino)phenyl]-3H-imidazo[4,5-b]pyridin-7-yl]-2-(hydroxymethyl)phenyl)-6-fluoro-2,3,4,5-tetrahydro-1,4-benzoxazepin-5-one], the IC50 at full-length human BTK was below 100 nM; in assay [3] it was below 100 nM; in assay [1], 1000 to 5000 nM.

With `CC(C)(C)c1nc(C(=O)NCc2ccc(-c3ccnc4[nH]c(C5CC5)nc34)cc2F)no1` [Example 27, 5-tert-Butyl-[1,2,4]oxadiazole-3-carboxylic acid 4-(2-cyclopropyl-3H-imidazo[4,5-b]pyridin-7-yl)-2-fluoro-benzylamide], the results for the IC50 (on full-length human BTK; in assay [3]; in assay [1]) were below 100 nM, below 100 nM and 1000 to 5000 nM, respectively.

In the case of `Cn1cc(-c2nc3c(-c4ccc(CNC(=O)c5ccc(C6CC6)nc5)c(F)c4)ccnc3[nH]2)cn1` [Example 56, 6-Cyclopropyl-N-([2-fluoro-4-[2-(1-methyl-1H-pyrazol-4-yl)-3H-imidazo[4,5-b]pyridin-7-yl]phenyl]methyl)pyridine-3-carboxamide], the figures for the IC50 (on full-length human BTK; in assay [3]; in assay [1]) were below 100 nM, below 100 nM and 1000 to 5000 nM, respectively.

On to `Cc1cc(-c2ccnc3[nH]c(-c4cnn(C)c4)nc23)ccc1CNC(=O)c1nnc(C(C)(C)C)o1` [Example 103, 5-tert-Butyl-[1,3,4]oxadiazole-2-carboxylic acid 2-methyl-4-[2-(1-methyl-1H-pyrazol-4-yl)-3H-imidazo[4,5-b]pyridin-7-yl]-benzylamide], for which the 50% inhibitory concentration (IC50) (at full-length human BTK; in assay [3]; in assay [1]) was below 100 nM in each case.

As to `CN1CCN(Cc2ccc(-c3nc4c(-c5cccc(N6CCOc7cc(C8CC8)cc(F)c7C6=O)c5CO)ccnc4[nH]3)nc2)CC1` [Example 35, 8-Cyclopropyl-6-fluoro-4-[2-(hydroxymethyl)-3-(2-[5-[(4-methylpiperazin-1-yl)methyl]pyridin-2-yl]-3H-imidazo[4,5-b]pyridin-7-yl)phenyl]-2,3,4,5-tetrahydro-1,4-benzoxazepin-5-one], the values for the 50% inhibitory concentration (IC50) (on full-length human BTK; in assay [3]; in assay [1]) were below 100 nM, below 100 nM and 100 to 1000 nM, respectively.
